Molecules are shown by their SMILES.

Kd, inhibition and IC50 data for 12 molecules are collected here from patent publication US10508120B2, “TYK2 inhibitors and uses thereof” (Nimbus Lakshmi, Inc., priority 2017, dated 2019).

The target of assay [1] is human TYK2 (JH2domain-pseudokinase) (Homo sapiens (Human), UniProt P29597). As to the kind of experiment: TYK2 JH2 Domain Binding Assay (KINOMEscan). The method in brief: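 Kds, run in duplicate, came from Hill fits (slope fixed at −1) of an 11-point 3-fold dilution series starting at 30,000 nM. Bead-retained TYK2 JH2 (aa G556–D888)–NFkB DBD fusion, DNA-tagged and expressed in HEK293 cells, was read by qPCR after 1 h room-temperature binding in 0.9% DMSO.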

A further assay addresses Tyk2 kinase domain (DH1) (Homo sapiens (Human), UniProt P29597). Briefly: Tyk2 Radioactive Kinase Assay. The format is biochemical. Particulars: 10 μM compound; 10 μM ATP; read-out: Tyk2 JH1% Inhibition @ 10 μM. The method in brief: (§1)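 Single-point screen: 10 μM test compound, radioactive kinase read-out, percent inhibition reported for each kinase domain.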
Another assay deals with JAK2 kinase domain (JH1) (Homo sapiens (Human), UniProt O60674). As to the kind of experiment: JAK2 Radioactive Kinase Assay. It counts as biochemical. As to conditions: 10 μM compound; 10 μM ATP; read-out: JAK2 JH1% Inhibition @ 10 μM. The method in brief:
as §1

For assay [2], the target named is JAK2/JAK2 homdimeric complex (Homo sapiens (Human), UniProt O60674). As to the kind of experiment: GM-CSF Induced pSTAT5 in Human PBMC. It counts as cell-based. As to conditions: GM-CSF 5 ng/mL for 20 minutes, pSTAT5 by MSD, read-out: PBMC_GMCSF_pSTAT5 IC50.
Chain of JAK2/JAK2 homdimeric complex (O60674 whole entry): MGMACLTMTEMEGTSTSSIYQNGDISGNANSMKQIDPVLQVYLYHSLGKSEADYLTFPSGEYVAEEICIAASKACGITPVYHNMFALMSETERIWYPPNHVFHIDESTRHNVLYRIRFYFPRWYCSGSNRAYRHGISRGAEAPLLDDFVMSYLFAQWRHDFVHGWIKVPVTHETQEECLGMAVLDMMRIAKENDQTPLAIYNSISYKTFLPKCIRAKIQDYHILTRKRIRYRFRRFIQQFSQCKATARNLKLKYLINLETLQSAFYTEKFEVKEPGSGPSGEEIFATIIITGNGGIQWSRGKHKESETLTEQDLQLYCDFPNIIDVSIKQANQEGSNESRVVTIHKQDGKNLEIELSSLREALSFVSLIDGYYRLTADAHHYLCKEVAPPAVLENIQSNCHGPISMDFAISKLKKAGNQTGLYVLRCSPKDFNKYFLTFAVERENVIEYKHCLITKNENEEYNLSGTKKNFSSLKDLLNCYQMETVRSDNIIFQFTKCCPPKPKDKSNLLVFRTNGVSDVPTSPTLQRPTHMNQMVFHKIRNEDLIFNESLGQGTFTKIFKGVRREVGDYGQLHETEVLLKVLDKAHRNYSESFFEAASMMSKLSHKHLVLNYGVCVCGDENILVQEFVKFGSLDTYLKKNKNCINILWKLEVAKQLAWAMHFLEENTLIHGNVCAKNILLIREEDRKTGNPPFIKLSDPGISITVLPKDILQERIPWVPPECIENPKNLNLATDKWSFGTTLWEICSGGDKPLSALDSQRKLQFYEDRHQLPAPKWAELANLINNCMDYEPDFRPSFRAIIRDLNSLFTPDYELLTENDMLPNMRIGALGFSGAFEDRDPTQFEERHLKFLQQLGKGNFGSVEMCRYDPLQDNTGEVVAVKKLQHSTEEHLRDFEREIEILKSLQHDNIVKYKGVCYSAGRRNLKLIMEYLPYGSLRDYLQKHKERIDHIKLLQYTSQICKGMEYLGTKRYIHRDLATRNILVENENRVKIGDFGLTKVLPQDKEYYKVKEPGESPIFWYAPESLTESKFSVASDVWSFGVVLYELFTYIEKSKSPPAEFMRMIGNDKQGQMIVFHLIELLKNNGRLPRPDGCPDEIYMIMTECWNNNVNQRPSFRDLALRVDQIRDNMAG
Chain of JAK2/JAK2 homdimeric complex (P32927 17-897 partner): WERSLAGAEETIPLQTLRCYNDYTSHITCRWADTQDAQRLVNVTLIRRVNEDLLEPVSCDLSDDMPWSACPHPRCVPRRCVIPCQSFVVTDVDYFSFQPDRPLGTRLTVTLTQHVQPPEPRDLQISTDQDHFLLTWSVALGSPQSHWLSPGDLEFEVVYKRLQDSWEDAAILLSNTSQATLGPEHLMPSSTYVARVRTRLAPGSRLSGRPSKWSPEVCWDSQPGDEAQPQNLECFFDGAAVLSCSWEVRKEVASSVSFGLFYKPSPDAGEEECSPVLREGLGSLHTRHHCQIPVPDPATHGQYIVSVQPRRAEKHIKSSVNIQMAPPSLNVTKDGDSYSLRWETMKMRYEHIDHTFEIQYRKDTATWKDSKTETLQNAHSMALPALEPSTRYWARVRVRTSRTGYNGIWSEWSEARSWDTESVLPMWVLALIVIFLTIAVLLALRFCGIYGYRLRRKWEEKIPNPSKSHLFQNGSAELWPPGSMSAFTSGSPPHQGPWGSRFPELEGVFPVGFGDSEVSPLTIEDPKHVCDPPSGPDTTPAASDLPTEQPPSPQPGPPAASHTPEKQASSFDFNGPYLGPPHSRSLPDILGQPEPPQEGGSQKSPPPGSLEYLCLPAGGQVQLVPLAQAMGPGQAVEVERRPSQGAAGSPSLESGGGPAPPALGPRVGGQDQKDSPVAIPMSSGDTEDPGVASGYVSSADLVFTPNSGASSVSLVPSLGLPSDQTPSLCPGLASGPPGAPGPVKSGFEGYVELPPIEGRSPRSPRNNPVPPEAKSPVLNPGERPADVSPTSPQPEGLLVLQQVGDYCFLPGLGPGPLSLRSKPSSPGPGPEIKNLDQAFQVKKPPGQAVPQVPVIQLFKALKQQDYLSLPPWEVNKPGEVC

Chain of human TYK2 (JH2domain-pseudokinase) (P29597 556-888): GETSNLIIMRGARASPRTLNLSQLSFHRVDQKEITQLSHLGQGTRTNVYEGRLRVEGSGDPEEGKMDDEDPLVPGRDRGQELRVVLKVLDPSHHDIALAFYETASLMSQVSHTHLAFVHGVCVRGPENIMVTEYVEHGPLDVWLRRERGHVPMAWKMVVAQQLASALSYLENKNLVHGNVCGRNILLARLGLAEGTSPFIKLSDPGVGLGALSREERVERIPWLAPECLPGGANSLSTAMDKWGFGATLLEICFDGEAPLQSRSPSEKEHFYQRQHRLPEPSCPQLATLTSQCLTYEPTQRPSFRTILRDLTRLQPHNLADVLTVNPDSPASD
Chain of Tyk2 kinase domain (DH1) (P29597 897-1176): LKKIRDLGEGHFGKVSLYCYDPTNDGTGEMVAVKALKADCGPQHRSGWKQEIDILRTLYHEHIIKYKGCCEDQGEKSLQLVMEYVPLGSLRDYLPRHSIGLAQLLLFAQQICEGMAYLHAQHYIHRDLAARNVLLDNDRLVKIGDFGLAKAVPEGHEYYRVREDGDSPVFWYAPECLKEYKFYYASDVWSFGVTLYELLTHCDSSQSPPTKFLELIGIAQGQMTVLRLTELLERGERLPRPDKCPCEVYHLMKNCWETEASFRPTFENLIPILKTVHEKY
Chain of JAK2 kinase domain (JH1) (O60674 849-1124): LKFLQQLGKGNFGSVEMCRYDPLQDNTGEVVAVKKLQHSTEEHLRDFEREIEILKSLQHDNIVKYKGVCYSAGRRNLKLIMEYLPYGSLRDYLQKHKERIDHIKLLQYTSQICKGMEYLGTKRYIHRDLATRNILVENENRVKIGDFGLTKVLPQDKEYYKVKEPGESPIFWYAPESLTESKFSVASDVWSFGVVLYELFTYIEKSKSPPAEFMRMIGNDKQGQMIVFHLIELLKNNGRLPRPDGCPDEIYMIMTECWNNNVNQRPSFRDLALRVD

On to `CNc1cc(Nc2cccn([C@H]3CCN(CCF)C3)c2=O)nc2c(C(=O)N[C@H]3CC[C@@H]3OC)cnn12` [I-1050, 5-((1-((S)-1-(2-fluoroethyl)pyrrolidin-3-yl)-2-oxo-1,2-dihydropyridin-3-yl)amino)-N-((1 S,2S)-2-methoxycyclobutyl)-7-(methylamino)pyrazolo[1,5-a]pyrimidine-3-carboxamide], for which, in assay [1], the Kd is < 0.2 nM. Moreover, the inhibition at 10 µM at Tyk2 kinase domain (DH1) and on JAK2 kinase domain (JH1) was < 50% in each case. Further, in assay [2], the IC50 is > 50000 nM.

For the molecule `CNc1cc(Nc2cccn([C@H]3CC[C@](C)(OC)CC3)c2=O)nc2c(C(=O)N[C@@H]3CC[C@H]3O)cnn12` [I-1107], the Kd in assay [1] was < 0.2 nM. For the same molecule, the inhibition at 10 µM on Tyk2 kinase domain (DH1) and on JAK2 kinase domain (JH1) was < 50% throughout. Further, the IC50 in assay [2] was > 2500 nM.

Regarding `CNc1cc(Nc2cccn(-c3ncc(C)s3)c2=O)nc2c(C(=O)N[C@@H]3CC[C@H]3O)cnn12` [I-1070], the Kd in assay [1] is < 0.2 nM. Moreover, the inhibition at 10 µM on Tyk2 kinase domain (DH1) and at JAK2 kinase domain (JH1) was < 50% throughout. For the same molecule, the IC50 in assay [2] is > 12500 nM.

Consider `CNc1cc(Nc2cccn([C@H]3CCC[C@H](OC)C3)c2=O)nc2c(C(=O)N[C@@H]3CC3F)cnn12` (stereo partly drawn) [I-1042], for which, in assay [1], the Kd was < 0.2 nM. Further, the inhibition at 10 µM on Tyk2 kinase domain (DH1) and at JAK2 kinase domain (JH1) was < 50% in each case. For the same molecule, the IC50 in assay [2] is > 2500 nM.

For the molecule `CNc1cc(-c2cn(C(C)C)c3ncc(F)cc23)nc2c(C(=O)N[C@H]3CC[C@@H]3OC)cnn12` [I-1053, 5-(5-fluoro-1-isopropyl-1H-pyrrolo[2,3-b]pyridin-3-yl)-N-((1S,2S)-2-methoycyclobutyl)-7-(methylamino)pyrazolo[1,5-a]pyrimidine-3-carboxamide], the equilibrium dissociation constant (Kd) in assay [1] is < 0.2 nM. Further, the inhibition at 10 µM on Tyk2 kinase domain (DH1) and on JAK2 kinase domain (JH1) was < 50% throughout. Further, the IC50 in assay [2] is > 12500 nM.

For `CNc1cc(Nc2cccn3cnnc23)nc2c(C(=O)N[C@H]3CC[C@@H]3OC)cnn12` [I-1102], in assay [1], the Kd was < 0.2 nM. The inhibition at 10 µM on Tyk2 kinase domain (DH1) and at JAK2 kinase domain (JH1) was < 50% each time. Further, in assay [2], the 50% inhibitory concentration (IC50) is > 2500 nM.

As to `CNc1cc(Nc2cccn([C@@H]3CCCN(CCF)C3)c2=O)nc2c(C(=O)N[C@@H]3CC[C@H]3OC)cnn12` [I-1095], the Kd in assay [1] was < 0.2 nM. The inhibition at 10 µM at Tyk2 kinase domain (DH1) and at JAK2 kinase domain (JH1) was < 50% each time. Also, the IC50 in assay [2] was > 50000 nM.

Turning to `CNc1cc(Nc2cccn(-c3cnco3)c2=O)nc2c(C(=O)N[C@H]3CC[C@H]3O)cnn12` [I-1017], the Kd in assay [1] was < 0.2 nM. For the same molecule, the inhibition at 10 µM at Tyk2 kinase domain (DH1) and on JAK2 kinase domain (JH1) was < 50% in each case. Also, in assay [2], the IC50 is > 12500 nM.

As to `CNc1cc(Nc2cccn([C@@H]3CC[C@H]3O)c2=O)nc2c(C(=O)N[C@@H]3C[C@@H]3F)cnn12` [I-999], the Kd in assay [1] was < 0.2 nM. Moreover, the inhibition at 10 µM at Tyk2 kinase domain (DH1) and on JAK2 kinase domain (JH1) was < 50% throughout. Further, the IC50 in assay [2] was > 50000 nM.

As for `CNc1cc(Nc2cccn([C@@H]3CCC[C@@H](OC)C3)c2=O)nc2c(C(=O)N[C@H]3CC[C@@H]3OC)cnn12` [I-1099], the Kd in assay [1] was < 0.2 nM. Besides, the inhibition at 10 µM on Tyk2 kinase domain (DH1) and on JAK2 kinase domain (JH1) was < 50% each time. For the same molecule, in assay [2], the IC50 is > 50000 nM.

Regarding `CNc1cc(Nc2cccn([C@H]3CC[C@](C)(OC)CC3)c2=O)nc2c(C(=O)N[C@H]3CC[C@@H]3OC)cnn12` [I-1105], in assay [1], the Kd was < 0.2 nM. Also, the inhibition at 10 µM at Tyk2 kinase domain (DH1) and on JAK2 kinase domain (JH1) was < 50% in each case. Moreover, the IC50 in assay [2] is > 50000 nM.

`CNc1cc(-c2cn(C(C)C)c3ncc(F)cc23)nc2c(C(=O)N[C@H]3CC[C@H]3O)cnn12` [I-1013, 5-(5-fluoro-1-isopropyl-1-pyrrolo[2,3-b]pyridin-3-yl)-N-(2-hydroxycyclobutyl)-7-(methylamino)pyrazolo[1,5-a]pyrimidine-3-carboxamide]: in assay [1], the dissociation constant (Kd) was < 0.2 nM. The inhibition at 10 µM at Tyk2 kinase domain (DH1) and on JAK2 kinase domain (JH1) was < 50% each time. Besides, the IC50 in assay [2] was > 12500 nM.
